Assay results taken from the supplement of paper PMC8882468.
Where “and” joins values, the source holds several entries; their conditions need not be identical. Identical values can stand only once. ± gives the standard deviation of the averaged measurements.

Legend:
MDA-MB-231 = test: CTG-3D luminescence at 96 h relative to day-0 seeding control (ratio to day 0); higher = more growth / less cytotoxicity; PDxO 3D drug screen (set 2), 96 h, CTG-3D normalised to day-0 seeding control.
HCI-003.E2 = organoid from an ER-positive breast cancer xenograft; test: CTG-3D luminescence at 96 h relative to day-0 seeding control (ratio to day 0); higher = more growth / less cytotoxicity; PDxO 3D drug screen, 96 h, CTG-3D normalised to day-0 seeding control.
HCI-005.E2 = organoid from a breast cancer xenograft with a HER2-positive history; test: as above
HCI-015 = organoid from a triple-negative breast cancer xenograft; test: as above
HCI-016 = organoid from a triple-negative breast cancer xenograft; test: as above
HCI-019 = organoid from a triple-negative breast cancer xenograft; test: as above
HCI-025 = organoid from a breast cancer xenograft; test: as above

CCOc1ccn(-c2ccc(F)cc2)c(=O)c1C(=O)Nc1ccc(Oc2ccnc(N)c2Cl)c(F)c1 [ASLAN002]
MDA-MB-231
Settings | CTG-3D luminescence at 96 h
12.5 pM | 5.15 ± 2.7
0.00025 µM | 5.18 ± 2.6
0.005 µM | 5.26 ± 2.7
0.1 µM | 5.15 ± 2.2
1 µM | 5.49 ± 2.8
10 µM | 4.89 ± 2
100 µM | 3.8 ± 1.8
625 fM | 5.36 ± 2.8

C[C@@H](Nc1cc(F)cc(F)c1)c1cc(C(=O)N(C)C)cc2c(=O)cc(N3CCOCC3)oc12 [AZD-8186]
MDA-MB-231
Settings | CTG-3D luminescence at 96 h
12.5 pM | 5.61 and 5.06
0.00025 µM | 5.71 and 5.14
0.005 µM | 5.56 and 5.16
0.1 µM | 5.39 and 4.98
1 µM | 5.11 and 4.76
10 µM | 4.68 and 4.38
100 µM | 2.77 and 2.47
625 fM | 5.47 and 5.15

Cc1c(CN2CCN(C(=O)[C@H](C)O)CC2)sc2c(N3CCOCC3)nc(-c3cnc(N)nc3)nc12 [apitolisib]
MDA-MB-231
Settings | CTG-3D luminescence at 96 h
12.5 pM | 5.6 and 5.03
0.00025 µM | 5.7 and 4.98
0.005 µM | 5.72 and 5.32
0.1 µM | 5.01 and 4.5
1 µM | 2.91 and 2.98
10 µM | 2.31 and 2.38
100 µM | 0.873 and 0.875
625 fM | 5.53 and 5.09

Nc1cc(C(F)(F)F)c(-c2cc(N3CCOCC3)nc(N3CCOCC3)n2)cn1 [buparlisib]
MDA-MB-231
Settings | CTG-3D luminescence at 96 h
12.5 pM | 5.18 ± 2.5
0.00025 µM | 5.23 ± 2.7
0.005 µM | 5.28 ± 2.6
0.1 µM | 5.17 ± 2.2
1 µM | 4.45 ± 1.8
10 µM | 2.28 ± 0.45
100 µM | 2.15 ± 0.4
625 fM | 5.31 ± 2.8

CC(=O)O[C@@]12CO[C@@H]1C[C@H](O)[C@@]1(C)C(=O)[C@H](O)C3=C(C)[C@@H](OC(=O)[C@H](O)[C@@H](NC(=O)OC(C)(C)C)c4ccccc4)C[C@@](O)([C@@H](OC(=O)c4ccccc4)[C@H]21)C3(C)C [docetaxel]
MDA-MB-231
Settings | CTG-3D luminescence at 96 h
12.5 pM | 4.86 and 2.64
0.00025 µM | 3.88 and 2.58
0.005 µM | 3.24 and 2.69
0.1 µM | 2.84 and 2.47
1 µM | 3.11 and 2.65
10 µM | 3.34 and 2.92
100 µM | 1.24 and 1.2
625 fM | 4.81 and 2.82

COc1cccc2c1C(=O)c1c(O)c3c(c(O)c1C2=O)C[C@@](O)(C(=O)CO)C[C@@H]3O[C@H]1C[C@H](N)[C@@H](O)[C@H](C)O1 [epirubicin]
MDA-MB-231
Settings | CTG-3D luminescence at 96 h
12.5 pM | 5.46 and 4.99
0.00025 µM | 5.52 and 4.95
0.005 µM | 4.84 and 4.76
0.1 µM | 3.26 and 3.33
1 µM | 0.232 and 0.543
10 µM | 0.504 and 0.188
100 µM | -0.0125 and -0.0119
625 fM | 5.48 and 5.03

CO[C@H]1C[C@@H]2CC[C@@H](C)[C@@](O)(O2)C(=O)C(=O)N2CCCC[C@H]2C(=O)O[C@H]([C@H](C)C[C@@H]2CC[C@@H](OCCO)[C@H](OC)C2)CC(=O)[C@H](C)/C=C(\C)[C@@H](O)[C@@H](OC)C(=O)[C@H](C)C[C@H](C)/C=C/C=C/C=C/1C [everolimus]
MDA-MB-231
Settings | CTG-3D luminescence at 96 h
12.5 pM | 5.2 and 4.8
0.00025 µM | 5.04 and 4.75
0.005 µM | 4.83 and 4.91
0.1 µM | 4.27 and 4.36
1 µM | 3.79 and 3.62
10 µM | 3.5 and 2.66
100 µM | -0.00539 and -0.00564
625 fM | 5.28 and 4.71

CS(=O)(=O)CCNCc1ccc(-c2ccc3ncnc(Nc4ccc(OCc5cccc(F)c5)c(Cl)c4)c3c2)o1 [lapatinib]
MDA-MB-231
Settings | CTG-3D luminescence at 96 h
12.5 pM | 5.64 and 5.22
0.00025 µM | 5.66 and 5.01
0.005 µM | 5.76 and 5.34
0.1 µM | 5.51 and 5.1
1 µM | 5.57 and 4.9
100 µM | 0.00446 and 0.0132
625 fM | 5.54 and 5.06

O=C(c1cc(Cc2n[nH]c(=O)c3ccccc23)ccc1F)N1CCN(C(=O)C2CC2)CC1 [olaparib]
MDA-MB-231
Settings | CTG-3D luminescence at 96 h
12.5 pM | 5.57 and 5.09
0.00025 µM | 5.62 and 5.21
0.005 µM | 5.57 and 5.41
0.1 µM | 5.38 and 5.09
1 µM | 5.15 and 5.11
10 µM | 4.31 and 4.38
100 µM | 3.27 and 2.33
625 fM | 5.41 and 5.09

CC(=O)c1c(C)c2cnc(Nc3ccc(N4CCNCC4)cn3)nc2n(C2CCCC2)c1=O [palbociclib]
MDA-MB-231
Settings | CTG-3D luminescence at 96 h
12.5 pM | 5.2 ± 2.5
0.00025 µM | 5.24 ± 2.5
0.005 µM | 5.27 ± 2.8
0.1 µM | 5.18 ± 2
1 µM | 5.16 ± 2.3
10 µM | 4.35 ± 1.2
100 µM | 1.02 ± 0.14
625 fM | 5.32 ± 2.8

CO[C@H]1C[C@@H]2CC[C@@H](C)[C@@](O)(O2)C(=O)C(=O)N2CCCC[C@H]2C(=O)O[C@H]([C@H](C)C[C@@H]2CC[C@@H](O)[C@H](OC)C2)CC(=O)[C@H](C)/C=C(\C)[C@@H](O)[C@@H](OC)C(=O)[C@H](C)C[C@H](C)/C=C/C=C/C=C/1C [rapamycin]
MDA-MB-231
Settings | CTG-3D luminescence at 96 h
12.5 pM | 4.67 ± 2.1
0.00025 µM | 4.8 ± 2.1
0.005 µM | 4.88 ± 2.4
0.1 µM | 4.66 ± 1.8
1 µM | 4.92 ± 2.4
10 µM | 4.59 ± 1.8
100 µM | 0.0454 ± 0.021

CC(C)n1nc(-c2ccc3oc(N)nc3c2)c2c(N)ncnc21 [sapanisertib]
CTG-3D luminescence at 96 h
Settings | 12.5 pM | 0.00025 µM | 0.005 µM | 0.1 µM | 1 µM | 10 µM | 100 µM | 625 fM
HCI-003.E2 | 2.24 ± 0.71 | 2.55 ± 0.68 | 1.59 ± 0.54 | 0.0566 ± 0.025 | 0.0162 ± 0.011 | 0.0035 ± 0.0049 | -0.00157 ± 0.0026 | 2.03 ± 0.3
HCI-005.E2 | 2.06 ± 0.39 | 2.01 ± 0.56 | 1.9 ± 0.47 | 0.62 ± 0.35 | 0.362 ± 0.2 | 0.282 ± 0.079 | 0.0263 ± 0.0063 | 1.56 ± 0.13
MDA-MB-231 | 5.39 ± 2.7 | 5.2 ± 2.5 | 4.98 ± 2.2 | – | 2.67 ± 0.52 | 1.74 ± 0.2 | 0.758 ± 0.11 | 5.28 ± 2.7

CTG-3D luminescence at 96 h
Settings | 12.5 pM | 0.00025 µM | 0.005 µM | 0.1 µM | 1 µM | 10 µM | 100 µM | 625 fM
HCI-015, days in culture: 172 | 2.06 | 1.81 | 1.9 | 0.761 | 0.765 | 0.544 | 0.204 | 2.17
HCI-015, days in culture: 191 | 1.67 | 1.6 | 1.4 | 0.411 | 0.69 | 0.363 | 0.165 | 1.72
HCI-015, days in culture: 218 | 1.96 | 1.53 | 1.59 | 0.561 | 0.547 | 0.511 | 0.156 | 1.77
HCI-016, days in culture: 153 | 2.9 | 1.03 | 2.18 | 0.842 | 0.922 | 0.411 | 0.0999 | 3.03
HCI-016, days in culture: 172 | 1.87 | 2.06 | 1.85 | 0.699 | 0.584 | 0.407 | 0.191 | 1.68
HCI-016, days in culture: 190 | 1.66 | 1.47 | 1.49 | 0.534 | 0.464 | 0.421 | 0.149 | 1.23
HCI-016, days in culture: 199 | 1.5 | 1.27 | 1.33 | 0.585 | 0.511 | 0.374 | 0.119 | 1.63
HCI-019, days in culture: 110 | 1.88 | 1.46 | 1.02 | 0.781 | 0.409 | 0.493 | 0.0143 | 2.26
HCI-019, days in culture: 131 | 2.52 | 3.19 | 3.17 | 1.21 | 0.676 | 0.681 | 0.0207 | 3.58
HCI-019, days in culture: 152 | 4.18 | 3.66 | 2.71 | 0.969 | 0.811 | 0.616 | 0.0357 | 2.12
HCI-025, days in culture: 172 | 2.78 | 1.04 | 1.61 | 0.407 | 0.372 | 0.145 | 0.00492 | 2.01
HCI-025, days in culture: 209 | 1.39 | 2.18 | 1.62 | 0.44 | 0.256 | 0.217 | 0.0409 | 1.33
HCI-025, days in culture: 218 | 1.85 | 2.15 | 1.44 | 0.421 | 0.231 | 0.291 | 0.0278 | 1.99

CNC(=O)c1cccc(-c2ccc3c(N4CCOC[C@@H]4C)nc(N4CCOC[C@@H]4C)nc3n2)c1 [vistusertib]
CTG-3D luminescence at 96 h
Settings | 12.5 pM | 0.00025 µM | 0.005 µM | 0.1 µM | 1 µM | 10 µM | 100 µM | 625 fM
HCI-003.E2 | 2.24 ± 0.71 | 2.07 ± 0.48 | 2.3 ± 0.51 | 1.4 ± 0.36 | 0.0994 ± 0.037 | 0.0512 ± 0.022 | 0.0137 ± 0.015 | 2.1 ± 0.35
HCI-005.E2 | 1.89 ± 0.48 | 2.02 ± 0.097 | 2.14 ± 0.46 | 2.05 ± 0.42 | 0.528 ± 0.063 | 0.53 ± 0.097 | 0.57 ± 0.21 | 1.98 ± 0.2

CTG-3D luminescence at 96 h
Settings | 12.5 pM | 0.00025 µM | 0.005 µM | 0.1 µM | 1 µM | 10 µM | 100 µM | 625 fM
HCI-015, days in culture: 172 | 2.36 | 1.61 | 2.07 | 0.997 | 0.995 | 0.545 | 0.36 | 2.7
HCI-015, days in culture: 191 | 1.84 | 1.24 | 1.54 | 0.827 | 0.859 | 0.436 | 0.329 | 1.43
HCI-015, days in culture: 218 | 2.16 | 1.84 | 2.09 | 1.41 | 0.874 | 0.543 | 0.305 | 2.18
HCI-016, days in culture: 153 | 2.83 | 1.97 | 2.44 | 1.36 | 1.01 | 1.52 | 0.486 | 1.72
HCI-016, days in culture: 172 | 2.41 | 1.96 | 1.67 | 1.67 | 0.7 | 0.422 | 0.424 | 1.42
HCI-016, days in culture: 190 | 1.92 | 1.44 | 1.77 | 1.19 | 0.838 | 0.424 | 0.374 | 1.44
HCI-016, days in culture: 199 | 1.72 | 1.65 | 1.77 | 1.76 | 0.654 | 0.556 | 0.348 | 1.81
HCI-019, days in culture: 110 | 1.84 | 1.95 | 1.82 | 1.67 | 0.591 | 0.882 | 0.492 | 2.38
HCI-019, days in culture: 131 | 2.64 | 4.03 | 2.46 | 2.64 | 0.938 | 1.24 | 0.736 | 3.83
HCI-019, days in culture: 152 | 2.51 | 2.65 | 3.11 | 1.64 | 0.846 | 0.759 | 0.555 | 2.52
HCI-025, days in culture: 172 | 2.8 | 1.41 | 1.7 | 0.95 | 0.649 | 0.279 | 0.41 | 2.26
HCI-025, days in culture: 209 | 1.74 | 2.05 | 2.28 | 0.89 | 0.395 | 0.287 | 0.239 | 2.1
HCI-025, days in culture: 218 | 1.49 | 1.78 | 1.94 | 0.816 | 0.249 | 0.373 | 0.201 | 1.44
